According to ChEMBL document CHEMBL1138165, “Structure-activity studies of quinuclidinone analogs as anti-proliferative agents in lung cancer cell lines” (2006):
Activity calls are given as the source filed them. The calls are words filed in the database; no cut-off is given here.

Legend:
[1] = tested on: NCI-H1299; test: Viability of H1299 (p53 null) cells at 4 mM by MTT assay; format: functional; conditions: Homo sapiens
[2] = tested on: NCI-H1299; test: Viability of H1299 (p53 null) cells in presence of 4 Gy at 4 mM by MTT assay; format: functional; conditions: Homo sapiens

| Structure (SMILES) | Activity [1] | GI50 [1] [µM] | GI50 [2] [µM] |
| --- | --- | --- | --- |
| O=C1CN2CCC1CC2 | inactive | – | – |
| O=C1C2CCN(CC2)C1(CO)CO | Active | – | – |
| OCC1(CO)C(O)C2CCN1CC2 (stereo not drawn) | inactive | – | – |
| CC1(C)OCC2(CO1)C(=O)C1CCN2CC1 | – | 19.2 | 4.74 |
| O=C1C2CCN(CC2)C12COC(c1ccccc1)OC2 (stereo not drawn) | – | 17.3 | 4.49 |
| CC(=O)OCC1(COC(C)=O)C(=O)C2CCN1CC2 | Active | – | – |
